The target of experiment [1] is T1, acetylcholinesterase (AChE) isolated from Electrophorus electricus (Electrophorus electricus, UniProt O42275).
T1 construct: AChE isolated from Electrophorus electricus; from tissue
Nature of the experiment: biochemical.

Experiment [2] deals with T2, human serum butyrylcholinesterase (BChE) (Homo sapiens, UniProt P06276).
T2 construct: BChE isolated from human serum; from tissue; host or cells: human serum
As to the kind of experiment: biochemical.

Setting [3] is: AChE isolated from Electrophorus electricus, read-out: AChE IC50.
Where [4] appears, read: human serum BChE, read-out: BChE.

Several values for one entry are separate records, joined by “and”; a condition that tells them apart may be missing. Identical values can stand only once. Like-named read-outs stand apart in the source and are kept apart here.

T1 sequence (O42275 24-633): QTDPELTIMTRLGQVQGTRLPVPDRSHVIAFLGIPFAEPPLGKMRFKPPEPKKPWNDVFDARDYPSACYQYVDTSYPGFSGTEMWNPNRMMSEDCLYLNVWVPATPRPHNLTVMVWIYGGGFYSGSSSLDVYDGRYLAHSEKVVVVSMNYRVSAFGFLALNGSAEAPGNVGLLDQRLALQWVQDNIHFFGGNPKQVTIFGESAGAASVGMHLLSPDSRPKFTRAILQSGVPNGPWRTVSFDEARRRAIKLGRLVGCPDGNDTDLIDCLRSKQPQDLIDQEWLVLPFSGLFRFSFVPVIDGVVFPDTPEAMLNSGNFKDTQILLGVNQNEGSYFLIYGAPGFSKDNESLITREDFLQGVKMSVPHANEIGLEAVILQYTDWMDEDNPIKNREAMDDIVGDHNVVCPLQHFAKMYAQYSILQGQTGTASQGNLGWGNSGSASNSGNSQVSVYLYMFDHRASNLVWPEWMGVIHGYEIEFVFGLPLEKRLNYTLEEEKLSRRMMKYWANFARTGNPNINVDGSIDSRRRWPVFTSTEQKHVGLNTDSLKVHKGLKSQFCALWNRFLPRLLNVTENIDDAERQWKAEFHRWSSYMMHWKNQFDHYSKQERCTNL
T2 sequence (P06276 29-602): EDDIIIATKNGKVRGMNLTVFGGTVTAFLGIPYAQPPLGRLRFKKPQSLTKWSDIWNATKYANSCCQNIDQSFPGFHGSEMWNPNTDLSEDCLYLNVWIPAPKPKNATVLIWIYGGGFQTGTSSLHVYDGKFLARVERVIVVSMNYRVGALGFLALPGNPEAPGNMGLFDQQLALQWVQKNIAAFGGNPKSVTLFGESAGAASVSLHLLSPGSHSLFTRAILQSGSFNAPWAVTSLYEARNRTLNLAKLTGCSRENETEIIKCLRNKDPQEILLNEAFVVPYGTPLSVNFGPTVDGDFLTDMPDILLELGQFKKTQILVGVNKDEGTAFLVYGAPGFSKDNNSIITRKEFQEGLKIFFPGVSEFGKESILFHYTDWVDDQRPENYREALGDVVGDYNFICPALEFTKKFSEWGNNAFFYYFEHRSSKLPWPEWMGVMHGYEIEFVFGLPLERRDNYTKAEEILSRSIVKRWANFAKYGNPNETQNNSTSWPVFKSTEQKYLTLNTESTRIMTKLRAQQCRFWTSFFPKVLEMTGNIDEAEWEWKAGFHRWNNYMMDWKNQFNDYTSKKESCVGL

In the case of `CC(C)C(=O)N[C@H]1CCC23C[C@]24C(=O)C[C@]2(C)[C@@H]([C@H](C)N(C)C)[C@H](O)C[C@@]2(C)[C@@H]4CC[C@H]3[C@]1(C)COCc1ccccc1` (some centres unmarked) [Compound 27], the values for the IC50 in experiment [1] (setting [3]) and in experiment [2] (setting [4]) were 16800 nM and 5200 nM, respectively.
As to `CC(C)[C@H]1N[C@H]2CCC34C[C@]35C(=O)C[C@]3(C)[C@@H]([C@H](C)N(C)C)[C@H](O)C[C@@]3(C)[C@@H]5CC[C@H]4[C@]2(C)CO1` (stereo partly drawn) [Compound 9, (20S)-9,19-cyclo-4,14α-dimethyl-20-dimethylamino(2′β-isopropyl-1′,2′,4′,4′-tetrahydro[3′,1′]oxazin)-5α,9-pregnan-16α-ol-11-one], the results for the IC50 in experiment [1] (setting [3]) and in experiment [2] were 2380 nM and greater than 10000 nM, respectively.
For the compound `C[C@@H]([C@H]1[C@H](O)C[C@@]2(C)[C@@H]3CC[C@@H]4C(=CC[C@H](NC(=O)C(C)(C)C)[C@@]4(C)CO)C[C@H]3C(=O)C[C@]12C)N(C)C` [Compound 7f, (20S)-10(9->1)abeo-4α-hydroxymethyl-4,14α-dimethyl-20-dimethylamino-3 (2,2-dimethylpropionylamino)-5α,9-pregn-1(10)-en-16α-ol-11-one], the IC50 in experiment [1] (setting [3]) was 4830 nM; in experiment [2] (setting [4]), greater than 1000 nM.
The like results for `C[C@@H]([C@H]1[C@H](O)C[C@@]2(C)[C@@H]3CC[C@H]4[C@](C)(CO)[C@@H](N)CC[C@@]45CC35C(=O)C[C@]12C)N(C)C` (stereo partly drawn) [Compound 5, (20S)-3-amino-9,19-cyclo-4α-hydroxymethyl-4,14α-dimethyl-20-dimethylamino-5α,9-pregnan-16α-ol-11-one] were, in that order, greater than 5000 nM and greater than 30000 nM.
The like results for `C[C@@H]([C@H]1[C@H](O)C[C@@]2(C)[C@@H]3CC[C@@H]4C(=CC[C@H](N)[C@@]4(C)CO)C[C@H]3C(=O)C[C@]12C)N(C)C` [Compound 11, (20S)-10(9->1)abeo-3-amino-4α-hydroxymethyl-4,14α-dimethyl-20-dimethylamino-5α,9-pregn-1(10)-en-16α-ol-11-one] were, in that order, 1500 nM and greater than 10000 nM.
Take `CCC(=O)N[C@H]1CC=C2C[C@H]3C(=O)C[C@]4(C)[C@@H]([C@H](C)N(C)C)[C@H](O)C[C@@]4(C)[C@@H]3CC[C@H]2[C@]1(C)CO` [Compound 7c, (20S)-10(9->1)abeo-4α-hydroxymethyl-4,14α-dimethyl-20-dimethylamino-3-propionylamino-5α,9-pregn-1(10)-en-16α-ol-11-one]: the IC50 in experiment [1] (setting [3]) is greater than 1000 nM; in experiment [2] (setting [4]) it was greater than 10000 nM.
On to `CCC(C)C(=O)N[C@H]1CC=C2C[C@H]3C(=O)C[C@]4(C)[C@@H]([C@H](C)N(C)C)[C@H](O)C[C@@]4(C)[C@@H]3CC[C@H]2[C@]1(C)CO` (mixture of isomers) [Compound 7h, (20S)-10(9->1)abeo-4α-hydroxymethyl-4,14α-dimethyl-20-dimethylamino-3 (2-methylbutyrylamino)-5α,9-pregn-1(10)-en-16α-ol-11-one], for which the IC50 in experiment [1] (AChE IC50) worked out at 120 nM; in experiment [2] (setting [4]), 1930 nM.
Turning to `C[C@@H]([C@H]1[C@H](O)C[C@@]2(C)[C@@H]3CC[C@H]4[C@](C)(CO)[C@@H](NC(=O)c5ccccc5)CC[C@@]45CC35C(=O)C[C@]12C)N(C)C` (stereo partly drawn) [Compound 6b, (20S)-3-benzoylamino-9,19-cyclo-4α-hydroxymethyl-4,14α-dimethyl-20-dimethylamino-5α,9-pregnan-16α-ol-11-one], the figures for the IC50 in experiment [1] (setting [3]) and in experiment [2] (setting [4]) were greater than 10000 nM and 2210 nM, respectively.
The like results for `CCC(C)C(=O)N[C@H]1CCC23C[C@]24C(=O)C[C@]2(C)[C@@H]([C@H](C)N(C)C)[C@H](O)C[C@@]2(C)[C@@H]4CC[C@H]3[C@]1(C)CO` (stereo partly drawn) [Compound 6h, (20S)-9,19-cyclo-4α-hydroxymethyl-4,14α-dimethyl-20-dimethylamino-3 (2-methylbutyrylamino)-5α,9-pregnan-16α-ol-11-one] were, in that order, greater than 100000 nM and 121 nM.
For the compound `C[C@@H]([C@H]1[C@H](O)C[C@@]2(C)[C@@H]3CC[C@@H]4C5(CC[C@H](N)[C@@]4(C)CO)C[C@@]35[C@@H](O)C[C@]12C)N(C)C` (stereo partly drawn) [Compound 28, (20S)-3-amino-9,19-cyclo-4α-hydroxymethyl-4,14α-dimethyl-20-dimethylamino-5α,9-pregnan-16α,11-diol-11-one], the IC50 in experiment [1] (setting [3]) is greater than 1000 nM; in experiment [2] (setting [4]) it was 2450 nM.
The like results for `C[C@@H]([C@H]1[C@H](O)C[C@@]2(C)[C@@H]3CC[C@@H]4C5(CC[C@H](NC(=O)C6CCCCC6)[C@@]4(C)CO)C[C@@]35C(=O)C[C@]12C)N(C)C` (stereo partly drawn) [Compound 6d, (20S)-3-(cyclohexanecarboxylamino)-9,19-cyclo-4α-hydroxymethyl-4,14α-dimethyl-20-dimethylamino-5α,9-pregnan-16α-ol-11-one] were, in that order, greater than 10000 nM and greater than 5000 nM.
The like results for `CC(C)C(=O)N[C@H]1CCC23C[C@]24C(=O)C[C@]2(C)[C@@H]([C@H](C)[N+](C)(C)[O-])[C@H](O)C[C@@]2(C)[C@@H]4CC[C@H]3[C@]1(C)CO` (stereo partly drawn) [Compound 29, (20S)-3-isobutyrylamino-9,19-cyclo-4α-hydroxymethyl-4,14α-dimethyl-20-dimethylazinoyl-5α,9-pregnan-16α,11-ol-11-one] were, in that order, 1420 nM and greater than 1000 nM.
The like results for `C[C@@H]([C@H]1[C@H](O)C[C@@]2(C)[C@@H]3CC[C@@H]4C(=CC[C@H](NC(=O)Cc5ccccc5)[C@@]4(C)CO)C[C@H]3C(=O)C[C@]12C)N(C)C` [Compound 7g, (20S)-10(9->1)abeo-4α-hydroxymethyl-4,14α-dimethyl-20-dimethylamino-3 (phenylacetylamino)-5α,9-pregn-1(10)-en-16α-ol-11-one] were, in that order, greater than 1000 nM and greater than 10000 nM.
For `CC(=O)O[C@@H]1C[C@@]2(C)[C@@H]3CC[C@@H]4C5(CC[C@H](NC(=O)C(C)C)[C@@]4(C)CO)C[C@@]35C(=O)C[C@]2(C)[C@H]1[C@H](C)N(C)C` (stereo partly drawn) [Compound 13, (20S)-16α-acetyl-3-isobutyrylamino-9,19-cyclo-4α-hydroxymethyl-4,14α-dimethyl-20-dimethylamino-5α,9-pregnan-11-one], the results for the IC50 in experiment [1] (setting [3]) and in experiment [2] (setting [4]) were greater than 10000 nM and greater than 1000 nM, respectively.
The like results for `C[C@@H]([C@H]1[C@H](O)C[C@@]2(C)[C@@H]3CC[C@@H]4C(=CC[C@@H]5N=C(C6CCCCC6)OC[C@]54C)C[C@H]3C(=O)C[C@]12C)N(C)C` [Compound 8d, (20S)-10(9->1)abeo-4,14α-dimethyl-20-dimethylamino(2′-cyclohexyl-4′,4′-dihydro[3′,1′]oxazin)-5α,9-pregn-1(10)-en-16α-ol-11-one] were, in that order, 403 nM and 375 nM.
In the case of `CC(C)C1=NC2CC=C3C[C@H]4C(=O)C[C@]5(C)[C@@H]([C@H](C)N(C)C)[C@H](O)C[C@@]5(C)[C@@H]4CC[C@H]3[C@]2(C)CO1` (stereo partly drawn) [Compound 1, (20S)-10(9->1)abeo-4,14α-dimethyl-20-dimethylamino-(2′-isopropyl-4′,4′-dihydro[3′,1′]oxazine)-5α,9-pregn-1(10)-en-16α-ol-11-one], the IC50 in experiment [1] (setting [3]) was 31 nM and 32 nM; in experiment [2] (setting [4]), greater than 1000 nM.

The values are drawn from US20120040930A1, “TETRACYCLIC TERPENE SERIES COMPOUNDS, METHODS FOR PREPARING SAME, USES THEREOF AS MEDICINES AND PHARMACEUTICAL COMPOUNDS CONTAINING SAME” (priority 2005, published 2012).
